Experiment [1] deals with T1, PLCδ-PH (PH domain of rat PLC-δ1) (Rattus norvegicus, UniProt P10688).
T1 construct: initiator methionine (N); made in house; host or cells: Escherichia coli (pET11a, T7 system)
T1 sequence (P10688 20-136): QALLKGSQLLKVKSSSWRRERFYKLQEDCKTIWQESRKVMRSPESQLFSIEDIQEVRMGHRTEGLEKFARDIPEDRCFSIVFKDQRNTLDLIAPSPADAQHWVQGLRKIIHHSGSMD
Put plainly: Isothermal titration calorimetry of inositol polyphosphate / PIP2 vesicle binding to PLCδ-PH. The conditions noted are these: for Kd: read-out: KD. How it is done: The resulting titration curve was fit using Omega software (Wiseman et al., 1989).
All experiments utilized the OMEGA instrument from MicroCal (Wiseman, T. et al., Anal. Biochem. 179, 131-137, 1989), in the laboratory of Prof. Julian Sturtevant at Yale. Titrations were performed at 25° C. in 50 mM MOPS, 100 mM NaCl, pH 6.8 or 100 mM NH4OAc at pH 6.8. […] For each titration, PH domain solution was dialyzed exhaustively against the buffer used for dilution of highly concentrated stocks of ligand. Heats for dilution of the ligand solutions were determined in separate titrations of ligand into buffer solution present in the cell.
Higher concentrations were employed for weaker binding events. […] Stoichiometry, binding constant (Kβ) and ΔH were all allowed to float in the fitting procedure.
A titration curve such as that to an equation describing a simple-binding reaction (Wiseman, T. et al., Anal. Biochem. 179, 131-137, 1989). From this fit, values for the binding constant, stoichiometry and ΔH for the binding reaction are ascertained. […] Ferris, C. D. et al, Nature, 342, 87-89, 1989.
In general terms: ITC needs no label: the signal is the heat of the interaction.

The next experiment addresses T2, PLCδ-PH (Rattus norvegicus, UniProt P10688).
T2 construct: initiator methionine (N); made in house; host or cells: Escherichia coli (pET11a, T7 system)
T2 sequence (P10688 20-136): T1 sequence (P10688 20-136)
Put plainly: Equilibrium gel filtration (Hummel and Dreyer) of PH domain binding to lipid vesicles. The settings on record: lipid-containing DMPC vesicles; overestimates of the real KD; read-out: apparent KD for vesicle binding. Here is the method:
(§1) A 150×7.5 mm Superdex 75 column, attached to a Dionex HPLC system, was equilibrated with buffer containing PH domain at around 5 μM (depending upon the experiment). A suspension of vesicles that also contained 5 μM PH domain was then injected. In the absence of interaction between the PH domain and the vesicles, the resulting column profile (detected by absorbance at 280 nm) reflects only the lipid peak. However, if there is significant interaction, a trough is observed at a position corresponding to the elution position of the free PH domain, since the lipids have removed free PH domain from the column buffer. When such a trough was observed, in order to determine a KD for the interaction, a series of higher concentrations of PH domain were injected, all with constant lipid concentration. A plot of trough area against [PH] in the injected sample was linear, becoming positive when excess free protein was present in the injected sample (see FIG. 5B). This line was used to determine the point at which no trough was observed. At this point, [PH]free in the injected sample is equal to [PH] in the column buffer. Since [PH]total as well as [lipid]total in the injected sample are known, KD can be determined, as KD=([PH]free×[lipid]free)/[complex]. [complex]=[PH]total−[PH]free, and [lipid]free=[lipid]total−[complex].
(§2) We also utilized the equilibrium gel-filtration approach described by Hummel, J. P., and Dreyer, W. J., Biochim. Biophys. Acta. 63, 530-532, 1962. In this approach, a size exclusion column is equilibrated with a solution of the ligand (5 μM PH domain in this case), and a solution of macromolecule (a vesicle suspension in this case) that also contains 5 μM ligand is then injected. In the absence of interaction between the ligand and macromolecule, a single peak, corresponding to the macromolecule, is observed. […] If an interaction is observed, its KD can be determined as described in Experimental Procedures. […]

The target of a further experiment is T3, PlecN-PH (Homo sapiens, UniProt P08567).
T3 construct: residues 1-110 of pleckstrin (PlecN-PH); initiator methionine (N); made in house; host or cells: Escherichia coli (pET11a, T7 system)
T3 sequence (P08567 1-110): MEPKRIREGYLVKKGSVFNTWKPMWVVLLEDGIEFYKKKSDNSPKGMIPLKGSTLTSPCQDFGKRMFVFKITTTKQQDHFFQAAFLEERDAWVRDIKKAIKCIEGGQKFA
The experiment is described as above. The conditions noted are these: PIP2-containing vesicles; overestimate; inhibited by moderately high NaCl; read-out: apparent KD for vesicle binding. Here is the method:
as §1, §2

The next experiment deals with T4, SH2 domain of Lck (Homo sapiens, UniProt P06239).
T4 construct: Control experiments performed with the SH2 domain of Lck; made in house
T4 sequence (P06239 127-224 limits assumed): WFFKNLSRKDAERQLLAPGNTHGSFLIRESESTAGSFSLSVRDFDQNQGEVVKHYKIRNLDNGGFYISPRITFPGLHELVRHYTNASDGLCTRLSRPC
Put plainly: Equilibrium gel filtration control with SH2 domain. The format is binding. The conditions noted are these: low salt; 50 mM MOPS pH 6.8, 100 mM NaCl.

For experiment [2], the system named is any PH domain (PLCδ-PH, Dyn-PH, PlecN-PH). Put plainly: Centrifugation-based assay of PH domain binding to lipid vesicles. The conditions noted are these: lipid at 5% in DMPC vesicles. How it is done: Attempts to detect PH domain association with lipid vesicles were performed exactly as described by Harlan, J. E. et al., Nature 371, 168-170, 1994. In addition to using the BCA protein assay reagent, for which lipid blanks were rather high compared with the values expected for the protein concentrations employed, we also measured OD278 of the supernatants after addition of SDS in order to detect removal of protein upon pelleting vesicles. […] Initially, we performed a centrifugation-based assay, using the conditions described by Harlan, J. E. et al., Nature 371, 168-170, 1994. […] Similarly, we were unable to detect association of any of the PH domains with the same vesicles by using size-exclusion chromatography to separate protein and lipid. Any complexes between the PH domains and these vesicles therefore form with low affinity and/or have fast dissociation kinetics, such that they dissociate in the separation methods employed.

Experiment [3] deals with T5, N-terminal pleckstrin PH domain (Homo sapiens, UniProt P08567).
T5 sequence (P08567 4-101 limits assumed): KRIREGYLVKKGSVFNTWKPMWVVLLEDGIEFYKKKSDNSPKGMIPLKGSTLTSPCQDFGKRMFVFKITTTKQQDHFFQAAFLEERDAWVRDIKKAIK
The conditions noted are these: PIP2 in detergent; Harlan et al. 1994; cited from earlier work.

The mark [4] stands for this setting: ITC, PIP2 at 5% in DMPC vesicles.

This is an account of results in patent US7314620B2, “Methods for diagnosis and treatment of PH domain signal transduction disorders” (New York University, priority 1995, dated 2008).

Values joined by “and” are separate entries in the source; they are usually repeats but may differ in a detail not shown here. Identical values can stand only once. Like-named read-outs stand apart in the source and are kept apart here.

As for “Phosphatidylinositol-(4,5)-bisphosphate [PIP2]”, the “PIP2 in the vesicle preparation available for PLCδ-PH binding (apparent stoichiometry)” value in experiment [1] (setting [4]) turned out to be 57%. Further, the Kd in experiment [1] (setting [4]) was 1000 nM and 950 nM; in experiment [1] (individual titrations, 25° C, pH 6.8) it was 950 nM and 2120 nM; at PLCδ-PH it was 13000 nM; on PlecN-PH, around 90000 nM; in experiment [3], around 30000 nM. In experiment [1] (PIP2 in vesicles), the “binding affinity in words” value is “submicromolar affinities”. Also, the ΔG in experiment [1] (individual titrations, 25° C) is -8.22 kcal/M and -7.74 kcal/M. Further, the ΔH in experiment [1] (individual titrations, 25° C) is -13.6 ± 0.4 kcal/M and -17.4 ± 0.4 kcal/M. Further, the ΔS in experiment [1] (individual titrations, 25° C) is −18.1 cal · M^−1 · K^−1 and −32.4 cal · M^−1 · K^−1. The Stoichiometry n in experiment [1] (individual titrations, 25° C, pH 6.8, quoted for IPn as the ligand, PIP2 in vesicles assuming 50% available) was 0.88 ± 0.02 and 0.87 ± 0.02. The binding to vesicles entry on SH2 domain of Lck is given as “also binds”; in experiment [2], “no binding”.
